For test [1], the target named is T1, human MOPr (Homo sapiens, UniProt P35372). The test can be described thus: Radioligand competition binding with [3H]-diprenorphine. More on the design: expressed in transfected cells; HEK293-Glo20F cells (cAMP). (In general: Loss of bound radioactivity is the signal in a displacement assay; it reports binding, not function.)
For test [2], the target named is T2, human NPFF1R (Homo sapiens, UniProt Q9GZQ6). The test is described as follows: [35S]-GTPγS binding assay. The class given is biochemical. More on the design: expressed in transfected cells. The note with it: for Emax: relative to RFRP3. The method, then: (§1) Stimulation by endogenous RF-amide peptides or test compounds for [^35S]-GTPγS binding to membranes from CHO cells expressing human NPFF1R or NPFF2R, were examined as reported. 1.6. Glo-Sensor cAMP Assay cAMP accumulation assay was essentially done as described with the following modifications: HEK293 cells stably expressing cAMP Glosensor-20F were used, with or without additional stable expression of each individual opioid receptor or NPFF1R. The cAMP responses were measured in presence of D-luciferin (1 mM).

For test [3], the target named is T3, NPFF2R (Homo sapiens, UniProt Q9Y5X5). The test can be described thus: [35S]-GTPγS binding assay. It counts as biochemical. More on the design: expressed in transfected cells. Here is the method: as §1
For test [4], the target named is T1, human MOPr. The test is described as follows: cell-based. More on the design: expressed in transfected cells; HEK293-Glo20F cells (cAMP). The class given is cell-based. The settings on record: for EC50: Table 3a, HEK293-Glo20F-hMOPr cells, read-out: MOPr (cAMP) EC50; for Emax: read-out: MOPr (cAMP) Emax. The method, then:
as §1

Test [5] concerns the target T2, human NPFF1R. The test is described as follows: Radioligand competition binding with [125I]-1-DMe-NPFF. More on the design: expressed in transfected cells; HEK293-Glo20F cells (cAMP).
Test [6] deals with T3, NPFF2R. The description is as above. More on the design: expressed in transfected cells; HEK293-Glo20F cells (cAMP).

Starred links: 1 amine or outer side, 2 acyl side, 3 side chain; linkers in the order of their positions; H or OH if unused. Non-standard residues stand in square brackets, D forms with d. Residues, ends and D or L forms follow the SMILES beside them. *: point of attachment. X1 = O=C1[C@@H](N[*:1])Cc2ccccc2CN1CCC(=O)[*:2]; Dmt = Cc1cc(O)cc(C)c1C[C@H](N)C(=O)O; X2 = c1ccc2[nH]c(*)nc2c1; X3 = c1ccc2oc(*)nc2c1; X4 = c1ccc2sc(*)nc2c1
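Throughout, for MOPr (cAMP) Emax: Emax relative to DAMGO as 100%.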

T1 sequence (P35372 whole entry): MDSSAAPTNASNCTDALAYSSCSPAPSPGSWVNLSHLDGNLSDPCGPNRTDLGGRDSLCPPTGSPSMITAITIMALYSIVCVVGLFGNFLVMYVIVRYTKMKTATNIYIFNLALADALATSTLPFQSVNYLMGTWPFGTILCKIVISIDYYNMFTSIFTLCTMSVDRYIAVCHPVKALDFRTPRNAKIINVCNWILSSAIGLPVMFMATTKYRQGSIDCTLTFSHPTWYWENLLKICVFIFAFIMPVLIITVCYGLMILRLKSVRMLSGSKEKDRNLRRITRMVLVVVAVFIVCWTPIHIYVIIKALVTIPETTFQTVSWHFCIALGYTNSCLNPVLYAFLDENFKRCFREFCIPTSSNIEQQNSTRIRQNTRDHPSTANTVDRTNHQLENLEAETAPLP
T3 sequence (Q9Y5X5 whole entry): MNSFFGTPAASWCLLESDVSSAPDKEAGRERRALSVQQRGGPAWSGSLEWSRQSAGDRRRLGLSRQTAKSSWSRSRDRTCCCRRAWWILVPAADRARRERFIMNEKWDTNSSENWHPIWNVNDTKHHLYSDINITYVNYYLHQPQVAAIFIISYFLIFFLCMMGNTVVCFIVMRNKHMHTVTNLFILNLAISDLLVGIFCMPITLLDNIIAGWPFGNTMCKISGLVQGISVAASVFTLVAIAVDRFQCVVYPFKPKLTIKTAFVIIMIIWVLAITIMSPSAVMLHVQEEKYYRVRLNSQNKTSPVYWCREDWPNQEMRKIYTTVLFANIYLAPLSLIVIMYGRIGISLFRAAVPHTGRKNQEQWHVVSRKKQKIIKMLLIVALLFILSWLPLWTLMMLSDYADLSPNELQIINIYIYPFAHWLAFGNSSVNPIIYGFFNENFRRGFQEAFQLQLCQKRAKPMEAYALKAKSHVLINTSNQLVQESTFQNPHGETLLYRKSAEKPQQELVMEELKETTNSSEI
T2 sequence (Q9GZQ6 whole entry): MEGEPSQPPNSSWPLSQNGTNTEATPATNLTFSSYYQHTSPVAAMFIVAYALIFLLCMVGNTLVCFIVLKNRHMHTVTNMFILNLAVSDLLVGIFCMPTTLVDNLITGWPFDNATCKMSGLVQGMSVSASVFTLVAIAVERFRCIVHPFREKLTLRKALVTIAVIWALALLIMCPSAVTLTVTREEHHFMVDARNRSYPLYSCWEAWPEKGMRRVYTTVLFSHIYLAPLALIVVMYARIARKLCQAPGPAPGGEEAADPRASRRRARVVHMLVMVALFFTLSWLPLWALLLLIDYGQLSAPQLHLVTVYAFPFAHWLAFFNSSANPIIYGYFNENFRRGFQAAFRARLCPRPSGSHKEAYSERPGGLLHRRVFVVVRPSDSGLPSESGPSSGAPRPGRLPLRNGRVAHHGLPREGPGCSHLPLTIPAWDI

As a reminder, the Ki is a dissociation constant, usually derived from enzyme kinetics or from competition with a known ligand. A high value points to weaker binding. The EC50 is the concentration needed to bring the measured effect to its halfway point. A word on the Emax: it is the size of the effect at its maximum, as opposed to the concentration needed. With `Cc1cc(O)cc(C)c1C[C@H](N)C(=O)N[C@H](CCCNC(=N)N)C(=O)N[C@H]1Cc2ccccc2CN(CC(=O)N[C@@H](CCCNC(=N)N)C(=O)N[C@@H](Cc2ccccc2)C(N)=O)C1=O` [KGFF01, H-Dmt-D-Arg-Aba-Gly-Arg-Phe-NH2], the Ki at human MOPr [1] came to 0.59 ± 0.21 nM; at human NPFF1R [5] it was 57 ± 10 nM; at NPFF2R [6], 1.2 ± 0.5 nM. The results for the 50% effective concentration (EC50) at human NPFF1R [2], at NPFF2R [3] and on human MOPr [4] were 155 ± 25 nM, 128 ± 23 nM and 2.4 ± 1 nM, respectively. In addition, the Emax was 44 ± 8% at human NPFF1R [2], 95 ± 6% at NPFF2R [3] and 101 ± 7% on human MOPr [4].
Consider `Cc1cc(O)cc(C)c1C[C@H](N)C(=O)N[C@H](CCCNC(=N)N)C(=O)N[C@H]1Cc2ccccc2CN(CC(=O)N[C@@H](CCCNC(=N)N)C(=O)N[C@@H](Cc2ccccc2)C(=O)O)C1=O` [KGFF02, H-Dmt-D-Arg-Aba-Gly-Arg-Phe-OH], for which the Ki was 0.59 ± 0.15 nM at human MOPr [1], 2540 nM at human NPFF1R [5] and 251 ± 25 nM at NPFF2R [6]. Also, on human MOPr [4], the EC50 was found to be 1.5 ± 0.7 nM. For the same molecule, the Emax at human MOPr [4] is 89 ± 2%.
For `Cc1cc(O)cc(C)c1C[C@H](N)C(=O)N[C@H](CCCNC(=N)N)C(=O)N[C@H]1Cc2ccccc2CN(CC(=O)N[C@@H](CCCN)C(=O)N[C@@H](Cc2ccccc2)C(N)=O)C1=O` [KGFF04, H-Dmt-D-Arg-Aba-Gly-Orn-Phe-NH2], the Ki on human MOPr [1] came to 0.67 ± 0.29 nM; at human NPFF1R [5], 780 ± 90 nM; on NPFF2R [6], 45 ± 8 nM. Moreover, the EC50 on human NPFF1R [2] is above 10000 nM; at NPFF2R [3], 963 ± 168 nM; on human MOPr [4], 9.5 ± 1.5 nM. Moreover, the values for the Emax at human NPFF1R [2], at NPFF2R [3] and on human MOPr [4] were 25 ± 4%, 67 ± 3% and 70 ± 4%, respectively.
For the molecule `Cc1cc(O)cc(C)c1C[C@H](N)C(=O)N[C@H](CCCNC(=N)N)C(=O)N[C@@H](Cc1ccccc1)C(=O)N[C@@H](CCCN)C(=O)N[C@@H](Cc1ccccc1)C(N)=O` [KGFF05, H-Dmt-D-Arg-Phe-Orn-Phe-NH2] (HELM PEPTIDE1{[Cc1cc(O)cc(C)c1C[C@H](N)C(=O)[*:2]].[dR].F.[Orn].F.[am]}$$$$V2.0), the Ki on human MOPr [1] was found to be 3.2 ± 1.1 nM; on human NPFF1R [5] it was 3100 nM; on NPFF2R [6], 360 ± 50 nM. The EC50 on human MOPr [4] amounted to 59.3 ± 24.5 nM. Moreover, the Emax at human MOPr [4] worked out at 94 ± 2%.
Regarding `Cc1cc(O)cc(C)c1C[C@H](N)C(=O)N[C@@H](CCCNC(=N)N)C(=O)N[C@@H](Cc1ccccc1)C(N)=O` [KGFF06, H-Dmt-Arg-Phe-NH2] (HELM PEPTIDE1{[Cc1cc(O)cc(C)c1C[C@H](N)C(=O)[*:2]].R.F.[am]}$$$$V2.0), the Ki amounted to 46 ± 22 nM at human MOPr [1], 147 ± 20 nM on human NPFF1R [5] and 15.9 ± 1.8 nM on NPFF2R [6]. At human MOPr [4], the EC50 turned out to be 2300 nM.
Take `Cc1cc(O)cc(C)c1C[C@H](N)C(=O)N[C@H](CCCNC(=N)N)C(=O)N[C@@H](Cc1ccccc1)C(N)=O` [KGFF07, H-Dmt-D-Arg-Phe-NH2] (HELM PEPTIDE1{[Cc1cc(O)cc(C)c1C[C@H](N)C(=O)[*:2]].[dR].F.[am]}$$$$V2.0): the Ki came out at 0.29 ± 0.13 nM on human MOPr [1], 11.8 ± 3.6 nM on human NPFF1R [5] and 84 ± 26 nM on NPFF2R [6]. The EC50 on human NPFF1R [2] turned out to be 87 ± 7 nM; at NPFF2R [3], 1930 nM; at human MOPr [4], 1.7 ± 0.4 nM. The Emax at human NPFF1R [2] was 84 ± 8%; on NPFF2R [3] it was 87 ± 2%; on human MOPr [4], 102 ± 2%.
As for `Cc1cc(O)cc(C)c1C[C@H](N)C(=O)N[C@H](CCCNC(=N)N)C(=O)N[C@H]1Cc2ccccc2CN(CCC(=O)N[C@@H](CCCN2CCCCC2)C(=O)N[C@@H](Cc2ccccc2)C(N)=O)C1=O` [KGFF08, H-Dmt-D-Arg-Aba-β-Ala-Apa-Phe-NH2], the Ki on human MOPr [1] was found to be 0.94 ± 0.19 nM; on NPFF2R [6] it was 3.9 ± 0.1 nM. The Emax came to 23 ± 1% at human NPFF1R [2], 97 ± 2% on NPFF2R [3] and 102 ± 3% on human MOPr [4]. The EC50 at NPFF2R [3] came to 574 ± 129 nM; on human MOPr [4], 9.9 ± 2 nM.
Consider `Cc1cc(O)cc(C)c1C[C@H](N)C(=O)N[C@@H](CCCN1CCCCC1)C(=O)N[C@@H](Cc1ccccc1)C(N)=O` [KGFF10, H-Dmt-Apa-Phe-NH2], for which the Ki at human MOPr [1] is 68 ± 48 nM; at human NPFF1R [5], above 10000 nM; on NPFF2R [6] it was 2100 nM. Besides, the EC50 at human MOPr [4] came to 598 ± 35 nM. Moreover, the Emax on human MOPr [4] amounted to 91 ± 10%.
As to `Cc1cc(O)cc(C)c1C[C@H](N)C(=O)N[C@@H](CCCN1CCC(Cc2ccccc2)CC1)C(=O)N[C@@H](Cc1ccccc1)C(N)=O` [KGFF11, H-Dmt-Bpa-Phe-NH2], the figures for the Ki at human MOPr [1], at human NPFF1R [5] and at NPFF2R [6] were above 10000 nM, 2720 nM and 406 ± 95 nM, respectively. In addition, at human MOPr [4], the EC50 was above 10000 nM.
Turning to `Cc1cc(O)cc(C)c1C[C@H](N)C(=O)N[C@H](CCCNC(=N)N)C(=O)N[C@H]1Cc2ccccc2CNC1=O` [KGFF12, H-Dmt-D-Arg-Aba-NH], the Ki at human MOPr [1] is 0.17 ± 0.05 nM; at human NPFF1R [5], 2490 nM; on NPFF2R [6], 375 ± 108 nM. Moreover, the EC50 was above 10000 nM at human NPFF1R [2], above 10000 nM on NPFF2R [3] and 2.7 ± 1.5 nM on human MOPr [4]. The Emax at human NPFF1R [2] stood at 13 ± 3%; at NPFF2R [3] it was 32 ± 17%; at human MOPr [4], 103 ± 4%.
`CNC(=O)[C@H](Cc1ccccc1)NC(=O)[C@@H](CCCNC(=N)N)NC(=O)[C@@H](N)Cc1c(C)cc(O)cc1C` [KGFF13, H-Dmt-D-Arg-Phe-NHMe] (HELM PEPTIDE1{[Cc1cc(O)cc(C)c1C[C@H](N)C(=O)[*:2]].[dR].F.[CN[*:1]]}$$$$V2.0): the Ki on human MOPr [1] is 0.11 ± 0.05 nM; at human NPFF1R [5], 147 ± 16 nM; on NPFF2R [6], 206 ± 47 nM. Besides, the figures for the EC50 on human NPFF1R [2], on NPFF2R [3] and on human MOPr [4] were above 10000 nM, above 10000 nM and 1 ± 0.4 nM, respectively. The values for the Emax on human NPFF1R [2], at NPFF2R [3] and at human MOPr [4] were 39 ± 2%, 68 ± 8% and 97 ± 2%, respectively.
With `Cc1cc(O)cc(C)c1C[C@H](N)C(=O)N[C@H](CCCNC(=N)N)C(=O)N[C@H]1Cc2ccccc2CN(CCC(=O)N[C@@H](CCCCNc2nc3ccccc3[nH]2)C(=O)N[C@@H](Cc2ccccc2)C(N)=O)C1=O` [KGFF14, H-Dmt-D-Arg-Aba-β-Ala-Lys(Bim)-Phe-NH2] (H-[Dmt][dR][X1]K(X2)F-NH2), the Ki on human MOPr [1] worked out at 1.6 ± 0.3 nM; at human NPFF1R [5] it was 4.54 ± 0.01 nM; at NPFF2R [6], 4.15 ± 1.35 nM. Further, the EC50 on human NPFF1R [2] came out at 76 ± 26 nM; at NPFF2R [3], 89 ± 7 nM; at human MOPr [4], 5.9 ± 2.5 nM. The values for the Emax on human NPFF1R [2], at NPFF2R [3] and on human MOPr [4] were 74 ± 1%, 73 ± 18% and 99 ± 4%, respectively.
For `Cc1cc(O)cc(C)c1C[C@H](N)C(=O)N[C@H](CCCNC(=N)N)C(=O)N[C@H]1Cc2ccccc2CN(CCC(=O)N[C@@H](CCCCNc2nc3ccccc3o2)C(=O)N[C@@H](Cc2ccccc2)C(N)=O)C1=O` [KGFF15, H-Dmt-D-Arg-Aba-β-Ala-Lys(Box)-Phe-NH2] (H-[Dmt][dR][X1]K(X3)F-NH2), the figures for the Ki at human MOPr [1], on human NPFF1R [5] and at NPFF2R [6] were 1.8 ± 0.9 nM, 88 ± 8 nM and 9.6 ± 0.6 nM, respectively. Besides, the results for the EC50 at human NPFF1R [2], at NPFF2R [3] and on human MOPr [4] were 1020 nM, 930 ± 210 nM and 4.1 ± 1.7 nM, respectively. Also, the Emax at human NPFF1R [2] turned out to be 51 ± 5%; at NPFF2R [3], 105 ± 15%; at human MOPr [4], 92 ± 13%.
With `Cc1cc(O)cc(C)c1C[C@H](N)C(=O)N[C@H](CCCNC(=N)N)C(=O)N[C@H]1Cc2ccccc2CN(CCC(=O)N[C@@H](CCCCNc2nc3ccccc3s2)C(=O)N[C@@H](Cc2ccccc2)C(N)=O)C1=O` [KGFF16, H-Dmt-D-Arg-Aba-β-Ala-Lys(Bth)-Phe-NH2] (H-[Dmt][dR][X1]K(X4)F-NH2), the Ki on human MOPr [1] is 2.6 ± 1.3 nM; on human NPFF1R [5], 80 ± 13 nM; at NPFF2R [6], 10.4 ± 2.3 nM. The EC50 on human NPFF1R [2] was determined as 273 ± 115 nM; at NPFF2R [3], 526 ± 12 nM; at human MOPr [4], 6.2 ± 2 nM. Moreover, the Emax was found to be 51 ± 7% on human NPFF1R [2], 88 ± 12% on NPFF2R [3] and 93 ± 6% at human MOPr [4].

(Values after patent publication US20210002231A1 (Centre National de la Recherche Scientifique, priority 2018, published 2021).)
